In US20090176811A1, “Substituted 5,6,7,8-Tetrahydro-pyrido[4,3-d]pyrimidine-2-yl Compounds and 5,6,7,8-Tetrahydro-quinazoline-2-yl Compounds” (GRUENENTHAL GmbH, priority 2004, published 2009):

How the values were obtained:
mGluR5 receptor = molecular target: T1, mGluR5 receptor (Sus scrofa, UniProt I3LUI7); experiment: Affinity for the mGluR5 receptor ([3H]-MPEP binding, pig brain homogenate); settings: 10 μM compound, 15 nM [3H]-MPEP
T1 construct: 450 μg of protein from brain homogenate is incubated; from tissue; host or cells: pig brain hemispheres without medulla, cerebellum and pons
T1 sequence (I3LUI7 19-1212): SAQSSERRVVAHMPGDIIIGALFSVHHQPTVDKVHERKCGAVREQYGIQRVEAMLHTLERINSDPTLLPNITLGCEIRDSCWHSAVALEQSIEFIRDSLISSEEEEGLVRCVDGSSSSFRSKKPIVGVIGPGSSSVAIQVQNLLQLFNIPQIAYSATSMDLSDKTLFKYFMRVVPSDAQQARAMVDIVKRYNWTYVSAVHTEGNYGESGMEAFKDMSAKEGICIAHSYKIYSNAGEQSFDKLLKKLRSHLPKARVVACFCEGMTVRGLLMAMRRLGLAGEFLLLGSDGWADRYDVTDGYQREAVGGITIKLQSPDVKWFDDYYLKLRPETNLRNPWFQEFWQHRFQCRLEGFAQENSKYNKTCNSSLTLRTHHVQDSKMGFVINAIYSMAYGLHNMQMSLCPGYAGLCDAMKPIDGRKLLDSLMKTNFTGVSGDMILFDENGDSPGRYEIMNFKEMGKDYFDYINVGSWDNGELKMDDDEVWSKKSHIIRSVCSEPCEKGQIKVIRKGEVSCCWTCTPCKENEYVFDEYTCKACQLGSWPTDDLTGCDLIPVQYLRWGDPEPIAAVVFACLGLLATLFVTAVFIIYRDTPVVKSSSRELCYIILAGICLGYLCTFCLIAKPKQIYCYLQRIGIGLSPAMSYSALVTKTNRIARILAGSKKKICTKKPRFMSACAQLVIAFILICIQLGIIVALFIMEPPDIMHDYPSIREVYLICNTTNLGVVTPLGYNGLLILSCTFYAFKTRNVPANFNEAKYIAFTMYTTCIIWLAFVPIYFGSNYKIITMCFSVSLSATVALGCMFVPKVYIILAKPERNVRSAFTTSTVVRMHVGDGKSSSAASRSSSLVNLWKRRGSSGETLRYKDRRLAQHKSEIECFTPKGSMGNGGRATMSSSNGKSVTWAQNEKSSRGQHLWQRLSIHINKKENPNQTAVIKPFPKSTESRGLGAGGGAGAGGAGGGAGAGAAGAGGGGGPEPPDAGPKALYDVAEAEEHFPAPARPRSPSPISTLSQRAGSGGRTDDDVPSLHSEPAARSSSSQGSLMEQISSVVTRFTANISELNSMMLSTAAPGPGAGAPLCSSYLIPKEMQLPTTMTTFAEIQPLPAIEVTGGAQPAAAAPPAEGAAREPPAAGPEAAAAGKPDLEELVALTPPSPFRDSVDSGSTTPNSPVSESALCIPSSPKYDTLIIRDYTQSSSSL
Protocol: III. Method for Determining Affinity for the mGluR5 Receptor
Pig brain homogenate is produced by homogenisation (Polytron Pt 3000, Kinematica AG, 10,000 rpm (revolutions per minute) for 90 seconds) of pig brain hemispheres without medulla, cerebellum and pons in a buffer of pH 8.0 (30 mM Hepes, Sigma, order number H3375+1 tablet Complete Roche Diagnostics, order number 1836145 made up to 100 ml) in a ratio of 1:20 (brain weight/volume) and differential centrifugation at 900 g and 40,000 g. 450 μg of protein from brain homogenate is incubated in each case in 250 μl incubation batches in 96-well microtitre plates with 15 nM ^3[H]-MPEP (Tocris, order number R1212) and the compounds to be investigated (in each case 10 μM in the test) in the above-stated buffer at room temperature for 60 minutes.
The batches are then filtered with the assistance of a Brandel Cell Harvester (Brandel, Grade Robotic 9600) on Unifilter plates with glass filter mats (Perkin Elmer, order number 6005177) and then rewashed 3 times with buffer of the above-stated composition using 250 μl per sample. The filter plates are then dried for 60 minutes at 55° C. Then 30 μl of Ultima Gold scintillating material (Packard BioScience, order number 6013159) is added per well and after 3 hours the samples are measured using the B counter ([…], Perkin Elmer). Nonspecific binding is determined by the addition of 10 μM 2-methyl-6-(phenylethynyl)-pyridine (Tocris, order number 1212).

5-HT transporter = molecular target: T2, 5-HT transporter (Rattus norvegicus, UniProt P31652); experiment: 5-HT uptake inhibition in rat brain synaptosomes (medulla and pons); assay type: biochemical
T2 construct: from tissue; host or cells: rat medulla and pons synaptosomes (P2 fraction)
T2 sequence (P31652 whole entry): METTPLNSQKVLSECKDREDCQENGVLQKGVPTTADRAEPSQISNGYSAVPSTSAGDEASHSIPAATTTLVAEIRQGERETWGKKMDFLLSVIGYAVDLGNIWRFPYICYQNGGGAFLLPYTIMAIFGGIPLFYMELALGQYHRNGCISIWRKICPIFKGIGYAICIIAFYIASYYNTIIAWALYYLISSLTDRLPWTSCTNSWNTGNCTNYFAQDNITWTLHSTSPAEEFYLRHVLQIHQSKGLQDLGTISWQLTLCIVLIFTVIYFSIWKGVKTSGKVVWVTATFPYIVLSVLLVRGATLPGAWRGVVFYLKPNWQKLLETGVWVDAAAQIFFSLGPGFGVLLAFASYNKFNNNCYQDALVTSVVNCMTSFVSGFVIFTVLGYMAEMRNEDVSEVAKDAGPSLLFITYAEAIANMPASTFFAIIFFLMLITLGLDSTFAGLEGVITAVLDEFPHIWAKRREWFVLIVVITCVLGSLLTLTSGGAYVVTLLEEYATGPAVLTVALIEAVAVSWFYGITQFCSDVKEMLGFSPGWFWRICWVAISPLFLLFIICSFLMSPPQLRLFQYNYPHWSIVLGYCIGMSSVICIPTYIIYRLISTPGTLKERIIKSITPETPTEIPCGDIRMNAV
Source text: (§1) I. Method for Determining Noradrenalin and 5-HT Uptake Inhibition:
(§2) Synaptosomes from rat brain regions are freshly isolated for in vitro studies, as described in the publication “The isolation of nerve endings from brain” by E. G. Gray and V. P. Whittaker, J. Anatomy 96, pages 79-88, 1962. The corresponding literature description is hereby introduced as a reference and is deemed to be part of the disclosure.
(§3) The tissue (hypothalamus for the determination of noradrenalin uptake inhibition and medulla and pons for the determination of 5-HT uptake inhibition) is homogenised in ice-cooled 0.32 M sucrose (100 mg of tissue/1 mL) in a glass homogeniser with Teflon pestle using five complete up and down strokes at 840 revolutions/minute.
(§4) The homogenate is centrifuged at 4° C. for 10 minutes at 1000 g. After subsequent centrifugation at 17000 g for 55 minutes, the synaptosomes (P2 fraction) are obtained, which are resuspended in 0.32 M […] (0.5 mL/100 mg of original weight).
(§5) The particular uptake is measured in a 96-well microtitre plate. The volume is 250 μl and the incubation proceeds at room temperature (approx. 20-25° C.) under an O2 atmosphere.
(§6) The incubation time is 7.5 minutes for [^3H]-NA and 5 minutes for [^3H]-5-HT.
(§7) The 96 samples are then filtered through a Unifilter GF/B microtitre plate (Packard) and washed with 200 mL of incubated buffer using a “Brabdel MPXRI-96T Cell-Harvester”. The Unifilter GF/B plate is dried for 1 hour at 55° C. The plate is then sealed with a Back seal (Packard) and 35 μl of scintillation fluid are added per well (Ultima Gold, Packard). After sealing with a top seal (Packard) and establishing an equilibrium (around 5 hours), radioactivity is determined in a “Trilux 1450 Microbeta” (Wallac).
(§8) The quantity of protein used in the above determination corresponds to the values known from the literature, as for example described in “Protein measurement with the folin phenol reagent”, Lowry et al., J. Biol. Chem., 193, 265-275, 1951.
(§9) A detailed description of the method may additionally be found in the literature, for example in M. Ch. Frink, H.-H. Hennies, W. Engelberger, M. Haurand and B. Wilffert (1996) Arzneim.-Forsch./Drug Res. 46 (III), 11, 1029-1036.
(§10) The corresponding literature descriptions are hereby introduced in each case as a reference and are deemed to be part of the present disclosure.
(§11) The following characteristics were determined for the NA or 5-HT transporter: […]

NA transporter = molecular target: T3, NA transporter (Rattus norvegicus, UniProt Q63380); experiment: Noradrenalin uptake inhibition in rat brain synaptosomes (hypothalamus); assay type: biochemical
T3 construct: from tissue; host or cells: rat hypothalamus synaptosomes (P2 fraction)
T3 sequence (Q63380 1-617): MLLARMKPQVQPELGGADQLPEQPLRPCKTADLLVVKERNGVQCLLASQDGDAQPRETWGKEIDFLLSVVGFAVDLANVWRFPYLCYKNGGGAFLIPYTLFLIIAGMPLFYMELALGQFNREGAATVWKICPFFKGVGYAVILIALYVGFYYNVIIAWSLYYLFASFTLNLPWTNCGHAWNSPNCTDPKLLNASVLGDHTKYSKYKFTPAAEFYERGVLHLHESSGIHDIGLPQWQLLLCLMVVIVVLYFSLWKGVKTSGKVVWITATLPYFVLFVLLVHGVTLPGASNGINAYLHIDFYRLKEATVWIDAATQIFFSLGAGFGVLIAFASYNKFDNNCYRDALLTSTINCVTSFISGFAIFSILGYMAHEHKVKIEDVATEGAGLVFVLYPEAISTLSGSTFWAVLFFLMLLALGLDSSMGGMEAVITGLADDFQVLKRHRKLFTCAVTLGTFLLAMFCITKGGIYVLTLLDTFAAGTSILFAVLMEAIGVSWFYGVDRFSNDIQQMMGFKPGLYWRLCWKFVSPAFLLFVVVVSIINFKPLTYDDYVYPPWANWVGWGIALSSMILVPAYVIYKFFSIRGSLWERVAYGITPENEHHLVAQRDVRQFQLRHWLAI
Source text: as §1, §2, §3, §4, §5, §6, §7, §8, §9, §10, §11

Compound	inhibition at 10 µM (mGluR5 receptor)	inhibition at 1 µM (5-HT transporter)	inhibition at 10 µM (NA transporter)
CC(C)C(NC(=O)OCC1c2ccccc2-c2ccccc21)C(=O)NC1CCc2nc(NC(=O)c3cccs3)ncc2C1 (stereo not shown) [Example 139, (2-methyl-1-{2-[(thiophene-2-carbonyl)-amino]-5,6,7,8-tetrahydro-quinazolin-6-ylcarbamoyl}-propyl)-carbamic acid 9H-fluoren-9-ylmethyl ester]	31%	–	–
O=C(Cc1cccc2ccccc12)NC1CCc2nc(NC(=O)c3cccs3)ncc2C1 (stereo not shown) [Example 177, thiophene-2-carboxylic acid [6-(2-naphthalen-1-yl-acetylamino)-5,6,7,8-tetrahydro-quinazolin-2-yl]-amide]	42%	39%	–
CCCC(=O)Nc1ncc2c(n1)CCC(NC(=O)C=Cc1cccc(C(F)(F)F)c1)C2 (stereo not shown) [Example 168, N-(2-butyrylamino-5,6,7,8-tetrahydro-quinazolin-6-yl)-3-(3-trifluoromethyl-phenyl)-acrylamide]	33.5%	46%	–
Cc1cc(C(=O)NC2CCc3nc(NC(=O)c4cccs4)ncc3C2)ccc1Br (stereo not shown) [Example 115, thiophene-2-carboxylic acid [6-(4-bromo-3-methyl-benzoylamino)-5,6,7,8-tetrahydro-quinazolin-2-yl]-amide]	34.3%	56%	49%
O=C(Nc1ncc2c(n1)CCN(S(=O)(=O)Cc1ccccc1)C2)c1ccc(F)cc1 [Example 178, 4-fluoro-N-(6-phenylmethanesulfonyl-5,6,7,8-tetrahydro-pyrido[4,3-d]pyrimidin-2-yl)-benzamide]	45.3%	–	–
CC(C)(C)c1ccc(C(=O)Nc2ncc3c(n2)CCN(C(=O)c2csc(-c4ccccc4)n2)C3)cc1 [Example 29, 4-tert-butyl-N-[6-(2-phenyl-thiazole-4-carbonyl)-5,6,7,8-tetrahydro-pyrido[4,3-d]pyrimidin-2-yl]-benzamide]	40.5%	–	–
O=C(Nc1ncc2c(n1)CCC(NS(=O)(=O)c1ccc(Cl)s1)C2)c1ccc(F)cc1 (stereo not shown) [Example 202, N-[6-(5-chloro-thiophene-2-sulfonylamino)-5,6,7,8-tetrahydro-quinazolin-2-yl]-4-fluoro-benzamide]	33.1%	–	–
Cc1ccc(C(=O)N2CCc3nc(NC(=O)c4cccc5ccccc45)ncc3C2)cc1F [Example 154, naphthalene-1-carboxylic acid [6-(3-fluoro-4-methyl-benzoyl)-5,6,7,8-tetrahydro-pyrido[4,3-d]pyrimidin-2-yl]-amide]	30.7%	–	50%
O=C(Nc1ncc2c(n1)CCN(C(=O)c1ccc(Cl)c(Cl)c1)C2)c1cccnc1 [Example 156, N-[6-(3,4-dichloro-benzoyl)-5,6,7,8-tetrahydro-pyrido[4,3-d]pyrimidin-2-yl]-nicotinamide]	46%	–	50%
O=C(CCCCCNC(=O)OCc1ccccc1)NC1CCc2nc(NC(=O)c3ccc(F)cc3)ncc2C1 (stereo not shown) [Example 181, {5-[2-(4-fluoro-benzoylamino)-5,6,7,8-tetrahydro-quinazolin-6-ylcarbamoyl]-pentyl}-carbamic acid benzyl ester]	36.4%	–	–
Cc1nc(C(F)(F)F)ccc1C(=O)NC1CCc2nc(NC(=O)c3ccc(F)cc3)ncc2C1 (stereo not shown) [Example 197, N-[2-(4-fluoro-benzoylamino)-5,6,7,8-tetrahydro-quinazolin-6-yl]-2-methyl-6-trifluoromethyl-nicotinamide]	32.1%	–	–
O=C(Nc1ncc2c(n1)CCN(C(=O)CCC1CCCC1)C2)c1ccncc1 [Example 132, N-[6-(3-cyclopentyl-propionyl)-5,6,7,8-tetrahydro-pyrido[4,3-d]pyrimidin-2-yl]-isonicotinamide]	58.1%	–	–
O=C(Nc1ncc2c(n1)CCN(C(=O)c1ccc(F)cc1F)C2)c1ccc(Cl)cc1 [Example 152, 4-chloro-N-[6-(2,4-difluoro-benzoyl)-5,6,7,8-tetrahydro-pyrido[4,3-d]pyrimidin-2-yl]-benzamide]	34%	33%	–
Cc1ccc(C(=O)Nc2ncc3c(n2)CCN(S(=O)(=O)c2cc(F)ccc2C)C3)cc1 [Example 107, N-[6-(5-fluoro-2-methyl-benzenesulfonyl)-5,6,7,8-tetrahydro-pyrido[4,3-d]pyrimidin-2-yl]-4-methyl-benzamide]	38.2%	36%	39%
CCOc1ccccc1C(=O)Nc1ncc2c(n1)CCN(S(=O)(=O)c1ccccc1C(=O)OC)C2 [Example 82, 2-[2-(2-ethoxy-benzoylamino)-7,8-dihydro-5H-pyrido[4,3-d]pyrimidine-6-sulfonyl]-benzoic acid methyl ester]	36.3%	–	32%
CCc1ccc(C(=O)Nc2ncc3c(n2)CCN(S(=O)(=O)c2ccc(OC)cc2)C3)cc1 [Example 172, 4-ethyl-N-[6-(4-methoxy-benzenesulfonyl)-5,6,7,8-tetrahydro-pyrido[4,3-d]pyrimidin-2-yl]-benzamide]	70.1%	57%	85%
COc1ccccc1C(=O)Nc1ncc2c(n1)CCN(C(=O)c1cc(-c3ccc(Cl)cc3)oc1C)C2 [Example 78, N-{6-[5-(4-chloro-phenyl)-2-methyl-furan-3-carbonyl]-5,6,7,8-tetrahydro-pyrido[4,3-d]pyrimidin-2-yl}-2-methoxy-benzamide]	41.1%	–	–
COc1cccc(C(=O)Nc2ncc3c(n2)CCN(S(=O)(=O)c2cc(Br)ccc2OC)C3)c1 [Example 129, N-[6-(5-bromo-2-methoxy-benzenesulfonyl)-5,6,7,8-tetrahydro-pyrido[4,3-d]pyrimidin-2-yl]-3-methoxy-benzamide]	51.1%	–	–
O=C(Nc1ncc2c(n1)CCC(NS(=O)(=O)c1cc(Cl)sc1Cl)C2)c1cccs1 (stereo not shown) [Example 180, thiophene-2-carboxylic acid [6-(2,5-dichloro-thiophene-3-sulfonylamino)-5,6,7,8-tetrahydro-quinazolin-2-yl]-amide]	86.7%	–	34%
CC(C)(C)OC(=O)N1CCC(C(=O)NC2CCc3nc(NC(=O)c4ccc(F)cc4)ncc3C2)CC1 (stereo not shown) [Example 194, 4-[2-(4-fluoro-benzoylamino)-5,6,7,8-tetrahydro-quinazolin-6-ylcarbamoyl]-piperidine-1-carboxylic acid tert-butyl ester]	45.6%	–	–
Cc1ccc(S(=O)(=O)N2CCc3nc(NC(=O)c4cccc(F)c4)ncc3C2)cc1 [Example 143, 3-fluoro-N-[6-(toluene-4-sulfonyl)-5,6,7,8-tetrahydro-pyrido[4,3-d]pyrimidin-2-yl]-benzamide]	37.2%	–	53%
CCOc1ccccc1C(=O)Nc1ncc2c(n1)CCN(C(=O)c1sccc1Cl)C2 [Example 145, N-[6-(3-chloro-thiophene-2-carbonyl)-5,6,7,8-tetrahydro-pyrido[4,3-d]pyrimidin-2-yl]-2-ethoxy-benzamide]	84.4%	–	–
CCCC(=O)Nc1ncc2c(n1)CCC(NS(=O)(=O)c1cccc(C)c1)C2 (stereo not shown) [Example 146, N-[6-(toluene-3-sulfonylamino)-5,6,7,8-tetrahydro-quinazolin-2-yl]-butyramide]	39.6%	–	–
